One assay has as its system Acinetobacter baumannii. Nature of the assay: Antibacterial activity against Acinetobacter baumannii AB-3167 by broth microdilution method. It is filed as functional. (Broth dilution looks for growth in wells or tubes with falling amounts of substance.)
In assay [1] the test system is Klebsiella pneumoniae. Nature of the assay: Antibacterial activity against Klebsiella pneumoniae 1487-07 by broth microdilution method. The format is functional.
Assay [2] has as its system Klebsiella pneumoniae. Nature of the assay: Antibacterial activity against Klebsiella pneumoniae 1000-02 by broth microdilution method. The format is functional.
Assay [3] has as its system Pseudomonas aeruginosa. Nature of the assay: Antibacterial activity against Pseudomonas aeruginosa 1042-06 by broth microdilution method. The format is functional.
In assay [4] the test system is Pseudomonas aeruginosa. The experiment in a line: microbe, parasite or virus in culture. Particulars: 1091-05.
Description: Antibacterial activity against Pseudomonas aeruginosa 1091-05 by broth microdilution method

The structures appear in SMILES notation. ≈ marks a conversion by molar mass, not a printed value.

As for `Nc1nc(/C(=N/Oc2ccccc2)C(=O)N[C@@H]2C(=O)N(S(=O)(=O)O)[C@@H]2CNC(=O)NCc2cc(=O)c(O)cn2O)cs1`, the MIC with Acinetobacter baumannii is 0.5 µg/mL (≈ 0.803 µM); against Klebsiella pneumoniae [1] it was more than 64 µg/mL; with Klebsiella pneumoniae [2] it was more than 64 µg/mL; against Pseudomonas aeruginosa [3], 16 µg/mL (≈ 25.7 µM); against Pseudomonas aeruginosa [4], 0.5 µg/mL (≈ 0.803 µM).
Regarding `Nc1nc(/C(=N/OCCO)C(=O)N[C@@H]2C(=O)N(S(=O)(=O)O)[C@@H]2CNC(=O)NCc2cc(=O)c(O)cn2O)cs1`, the MIC in the assay with Acinetobacter baumannii was 0.5 µg/mL (≈ 0.847 µM); against Klebsiella pneumoniae [1], 32 µg/mL (≈ 54.2 µM); against Klebsiella pneumoniae [2] it was 32 µg/mL (≈ 54.2 µM); against Pseudomonas aeruginosa [3], 16 µg/mL (≈ 27.1 µM); in the assay with Pseudomonas aeruginosa [4] it was 0.5 µg/mL (≈ 0.847 µM).
`CC(C)(O/N=C(\C(=O)N[C@@H]1C(=O)N(S(=O)(=O)O)[C@@H]1CNC(=O)c1[nH]ccc(=O)c1O)c1csc(N)n1)C(=O)O`: the MIC is 32 µg/mL (≈ 54.5 µM) with Acinetobacter baumannii; 64 µg/mL (≈ 109 µM) against Klebsiella pneumoniae [1]; 32 µg/mL (≈ 54.5 µM) against Klebsiella pneumoniae [2]; more than 64 µg/mL against Pseudomonas aeruginosa [3]; 32 µg/mL (≈ 54.5 µM) against Pseudomonas aeruginosa [4].
`Nc1nc(/C(=N/OCc2cscn2)C(=O)N[C@@H]2C(=O)N(S(=O)(=O)O)[C@@H]2CNC(=O)NCc2cc(=O)c(O)cn2O)cs1`: the MIC against Acinetobacter baumannii was 1 µg/mL (≈ 1.55 µM); against Klebsiella pneumoniae [1], 16 µg/mL (≈ 24.9 µM); against Klebsiella pneumoniae [2], 16 µg/mL (≈ 24.9 µM); in the assay on Pseudomonas aeruginosa [3], more than 64 µg/mL; in the assay with Pseudomonas aeruginosa [4] it was 1 µg/mL (≈ 1.55 µM).
Take `Cn1cc(O)c(=O)cc1C(=O)NC[C@@H]1[C@H](NC(=O)/C(=N\OC(C)(C)C(=O)O)c2csc(N)n2)C(=O)N1S(=O)(=O)O`: the MIC against Acinetobacter baumannii, against Klebsiella pneumoniae [1], against Pseudomonas aeruginosa [3] and in the assay with Pseudomonas aeruginosa [4] was 4 µg/mL (≈ 6.65 µM) each time.
Take `CC(C)(O/N=C(\C(=O)N[C@@H]1C(=O)N(S(=O)(=O)O)[C@@H]1CNc1cc(C(=O)NCc2cc(=O)c(O)cn2O)ccn1)c1csc(N)n1)C(=O)O`: the MIC came to 0.125 µg/mL (≈ 0.176 µM) against Acinetobacter baumannii, 16 µg/mL (≈ 22.5 µM) against Klebsiella pneumoniae [1] and 1 µg/mL (≈ 1.41 µM) in the assay with Pseudomonas aeruginosa [3].
On to `CC(C)C[C@H](O/N=C(\C(=O)N[C@@H]1C(=O)N(S(=O)(=O)O)[C@@H]1CNC(=O)NCc1cc(=O)c(O)cn1O)c1csc(N)n1)C(=O)O`, for which the MIC turned out to be 1 µg/mL (≈ 1.51 µM) against Acinetobacter baumannii, 1 µg/mL (≈ 1.51 µM) against Klebsiella pneumoniae [1], 16 µg/mL (≈ 24.2 µM) against Pseudomonas aeruginosa [3] and 1 µg/mL (≈ 1.51 µM) in the assay with Pseudomonas aeruginosa [4].
Consider `CNn1cc(O)c(=O)cc1C(=O)NC[C@@H]1[C@H](NC(=O)/C(=N\OC(C)(C)C(=O)O)c2csc(N)n2)C(=O)N1S(=O)(=O)O`, for which the MIC against Acinetobacter baumannii was 2 µg/mL (≈ 3.24 µM); with Klebsiella pneumoniae [1] it was 8 µg/mL (≈ 13 µM); in the assay on Klebsiella pneumoniae [2] it was 0.5 µg/mL (≈ 0.811 µM); with Pseudomonas aeruginosa [3], 8 µg/mL (≈ 13 µM); in the assay with Pseudomonas aeruginosa [4] it was 2 µg/mL (≈ 3.24 µM).
Regarding `Nc1nc(/C(=N/OCc2nnn[nH]2)C(=O)N[C@@H]2C(=O)N(S(=O)(=O)O)[C@@H]2CNC(=O)NCc2cc(=O)c(O)cn2O)cs1`, the MIC was found to be 0.5 µg/mL (≈ 0.795 µM) against Acinetobacter baumannii; 32 µg/mL (≈ 50.9 µM) with Klebsiella pneumoniae [1]; 8 µg/mL (≈ 12.7 µM) against Klebsiella pneumoniae [2]; 16 µg/mL (≈ 25.5 µM) in the assay on Pseudomonas aeruginosa [3]; 0.5 µg/mL (≈ 0.795 µM) with Pseudomonas aeruginosa [4].
As for `CC(C)(O/N=C(\C(=O)N[C@@H]1C(=O)N(S(=O)(=O)O)[C@@H]1CNC(=O)c1cc(=O)c(O)c[nH]1)c1csc(N)n1)C(=O)O`, the MIC came out at 0.125 µg/mL (≈ 0.213 µM) in the assay with Acinetobacter baumannii, 0.5 µg/mL (≈ 0.851 µM) in the assay with Klebsiella pneumoniae [2], 0.5 µg/mL (≈ 0.851 µM) in the assay on Pseudomonas aeruginosa [3] and 0.125 µg/mL (≈ 0.213 µM) against Pseudomonas aeruginosa [4].
For `COn1cc(O)c(=O)cc1C(=O)NC[C@@H]1[C@H](NC(=O)/C(=N\OC(C)(C)C(=O)O)c2csc(N)n2)C(=O)N1S(=O)(=O)O`, the MIC in the assay with Acinetobacter baumannii is 1 µg/mL (≈ 1.62 µM); with Klebsiella pneumoniae [1], 8 µg/mL (≈ 13 µM); against Klebsiella pneumoniae [2] it was 1 µg/mL (≈ 1.62 µM); against Pseudomonas aeruginosa [3], 4 µg/mL (≈ 6.48 µM); against Pseudomonas aeruginosa [4], 1 µg/mL (≈ 1.62 µM).
On to `Nc1nc(/C(=N/OCC(=O)O)C(=O)N[C@@H]2C(=O)N(S(=O)(=O)O)[C@@H]2CNC(=O)NCc2cc(=O)c(O)cn2O)cs1`, for which the MIC came out at 8 µg/mL (≈ 13.2 µM) in the assay on Klebsiella pneumoniae [1], 4 µg/mL (≈ 6.62 µM) against Pseudomonas aeruginosa [3] and 0.125 µg/mL (≈ 0.207 µM) with Pseudomonas aeruginosa [4].
As for `CC(C)(O/N=C(\C(=O)N[C@@H]1C(=O)N(S(=O)(=O)O)[C@@H]1CNC(=O)c1cc(=O)c(O)co1)c1csc(N)n1)C(=O)O`, the MIC against Acinetobacter baumannii stood at 8 µg/mL (≈ 13.6 µM); in the assay on Klebsiella pneumoniae [1], 64 µg/mL (≈ 109 µM); in the assay with Klebsiella pneumoniae [2], 32 µg/mL (≈ 54.4 µM); in the assay with Pseudomonas aeruginosa [3], 64 µg/mL (≈ 109 µM); in the assay on Pseudomonas aeruginosa [4], 8 µg/mL (≈ 13.6 µM).

The values are drawn from ChEMBL document CHEMBL2407067, “Pyridone-conjugated monobactam antibiotics with gram-negative activity” (J Med Chem, 2013).
